From US6120765A, “Urokinase plasminogen activator fragments” (Shiseido Co. Ltd., priority 1993, dated 2000)
Where no end group is shown, it is not given here.

Tested on: Primary human keratinocytes
Experiment: Mitogenesis assay (3H-thymidine incorporation, DNA synthesis) in keratinocytes
Assay type: cell-based
Settings: for 3H-thymidine uptake (mitogenesis) of Lys23-substituted 9-mers versus controls: keratinocytes, negative control no peptide, positive control K-GFD
Protocol: FIG. 1 is a bar graph which represents the effect of various uPA peptides on DNA synthesis in keratinocytes. Various concentrations of GFD peptides were tested in order to compare the mitogenic activity. After 24 h incubation with a peptide and 3H-thymidine, incorporated radioactivity was measured as described herein. Five concentrations were used for each peptide. For a given peptide the uppermost bar of the five represents 0.1 μM, the next lower bar 0.33 μM, the next lower bar 1 μM, the next lower bar 3.3 μM, and the lowest bar, 10 μM.
Mitogenesis Assay The effect of a peptide on mitogenesis was determined as a function of DNA synthesis as follows. Peptides (in phosphate buffered saline (PBS)) were added to the monolayers (grown as described herein) to a final concentration of either 0.1 μM, 0.33 μM, 1.0 μM, 3.3 μM, or 10 μM. 5 μL of ^3 H-thymidine (10 μCi/ml; Amersham, Arlington Heights, Ill.) in 150 μL KGM was added to the cultures concurrent with the peptides, and cells were harvested and lysed after 24 hours at 37° C. in distilled H2 O using a Tomtec cell harvester, and fixed with 70% ethanol. The lysed cells were then transferred to a nylon filter (Amersham, Arlington Heights, Ill.), Beta plate scintillation fluid was added (LKB), and radioactivity was measured using a Wallac 1205 beta plate counter. Control samples, incubated in the presence of phosphate-buffered saline (PBS) and ^3 H-thymidine gave control levels of radioactivity of approximately 400 cpm.
Cell Culture Primary human keratinocytes (Clonetics, Calif.) were cultured in 96-well plates (Corning, N.Y.) in serum-free medium (KGM medium, Clonetics) to 70-80% confluency on a monolayer culture at 37° C. in 5% C02.

Sequence	3H-thymidine uptake (mitogenesis) of Lys23-substituted 9-mers versus controls	concentration giving maximum level of mitogenic activity (24 h, tested 0.1-10 μM) [µM]	further results
SNEYFSDIH [E-GFD]	inhibited mitogenesis		
SNRYFSDIH [R-GFD]	greatly increased		
TCVSNKYFSNIHWCN [15-mer]		3.3	
SNAYFSDIH [A-GFD]	little different from negative control cells		
TCVSNKYFSNIH [12-mer]			effect on keratinocyte stimulation (at other concentrations than 1 μM (0.1, 0.33, 3.3, 10 μM)): little, if any, effect; mitogenic activity (3H-thymidine incorporation) (only at 1 μM, 24 h): demonstrated mitogenic activity
SNKYFSNIH [9-mer, K-GFD printed in b183 with Asp instead of Asn]	increased uptake as compared with untreated cells	1	lowest concentration effective in stimulating mitogenesis (24 h, tested 0.1-10 μM): 0.33 µM
